Data taken from PMC13397736, “LEP-AD: language embedding of proteins and attention to drugs predicts drug-target interactions” (Journal of Cheminformatics, 2026).
pIC50: −log10 of the molar value.

Target: Src kinase (Homo sapiens, UniProt P12931)
Assay: ADP-Glo kinase assay, […] Src, […] ATP, peptide substrate

Chain of Src kinase (P12931 2-536): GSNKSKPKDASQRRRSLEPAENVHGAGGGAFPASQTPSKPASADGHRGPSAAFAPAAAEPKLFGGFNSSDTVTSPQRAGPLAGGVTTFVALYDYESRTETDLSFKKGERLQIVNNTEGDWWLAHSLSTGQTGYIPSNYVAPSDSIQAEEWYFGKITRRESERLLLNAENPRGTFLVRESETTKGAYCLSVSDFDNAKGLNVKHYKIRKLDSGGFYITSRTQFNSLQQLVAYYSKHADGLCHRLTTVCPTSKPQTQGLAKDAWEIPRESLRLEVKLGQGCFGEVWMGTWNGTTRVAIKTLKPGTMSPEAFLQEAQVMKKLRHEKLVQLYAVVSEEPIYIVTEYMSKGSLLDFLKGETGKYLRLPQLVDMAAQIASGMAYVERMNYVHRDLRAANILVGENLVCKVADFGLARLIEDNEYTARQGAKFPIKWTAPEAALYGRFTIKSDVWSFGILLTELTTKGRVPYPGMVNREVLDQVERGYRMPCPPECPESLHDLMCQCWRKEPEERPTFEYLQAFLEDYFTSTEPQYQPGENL

pIC50: 6.49
Compound: Cc1nc(Nc2ncc(C(=O)Nc3cc(NC(=O)c4cccc(C(F)(F)F)c4)ccc3C)s2)cc(N2CCN(CCO)CC2)n1 [UM-164]
